# Assay results published in patent publication US20250221996A1, “HETEROCYCLIC COMPOUNDS, COMPOSITIONS THEREOF, AND METHODS OF TREATMENT THEREWITH” (BeiGene, Ltd., priority 2022, published 2025).
# Tested on: pERK1/2(THR202/TYR204) level in AsPC-1 cells
# Experiment: pERK assay (HTRF) in AsPC-1 cell line
# Type: cell-based
# Details: 2 h compound treatment
# Experimental: AsPC-1 cell line was used in this study. Cells were maintained in RPMI-1640 supplemented with 10% fetal bovine serum (Thermo Fisher), 50 units/mL penicillin and streptomycin (Thermo Fisher) and kept at 37° C. in a humidified atmosphere of 5% CO2 in air. Cells were reinstated from frozen stocks that were laid down within 30 passages from the original cells purchased. 30000 cells per well were seeded into a 96-well plate and incubated overnight. Cells were treated with a 10-point dilution series. The final compound concentration is from 0 to 10 μM. After 2 h compound treatment, cells were lysed, and the pERK1/2(THR202/TYR204) level in the cell lysates was detected by HTRF kit (Cisbio). In brief, a total of 16 μL of cell lysate from each well of a 96-well plate was transferred to a 384-well white assay plate. Lysate from each well was incubated with 2 μL of Eu3+-cryptate (donor) labeled anti-phospho-ERK1/2 and 2 μL of D2 (acceptor) labeled anti-phospho-ERK1/2 antibodies (Cisbio) overnight in dark at room temperature. When donor and acceptor are in close proximity, excitation of the donor with laser triggers a Fluorescence Resonance Energy Transfer (FRET) towards the acceptor, which in turn fluoresces at 655 nm wavelength. FRET signals were measured using a PHERAstar FSX reader (BMG Labtech). IC50 determination was performed by fitting the curve of percent inhibition versus the log of the inhibitor concentration using Dotmatics.
row,SMILES,IC50 [nM]
1,"N#Cc1c(N)sc2c(F)ccc(-c3c(Cl)cc4c(N5CC6CCC(C5)N6)nc(OCC56COC(C5)C6)nc4c3F)c12 (single isomer, unassigned) [Example 2-Isomer 1, 4-(2-((2-oxabicyclo[2.1.1]hexan-4-yl)methoxy)-4-(3,8-diazabicyclo[3.2.1]octan-3-yl)-6-chloro-8-fluoroquinazolin-7-yl)-2-amino-7-fluorobenzo[b]thio phene-3-carbonitrile]",160
2,"N#Cc1c(N)sc2c(F)ccc(-c3c(C(F)(F)F)cc4c(N5CC6CCC(C5)N6)nc(OCC5(C#N)CCOC5)nc4c3F)c12 (single isomer, unassigned) [Example 10-Isomer 1, 3-(((7-(2-amino-3-cyano-7-fluorobenzo[b]thiophen-4-yl)-4-(3,8-diazabicyclo[3.2.1]octan-3-yl)-8-fluoro-6-(trifluoromethyl)quinazolin-2-yl)oxy)methyl)tetrahydrofuran-3-carbonitrile]",> 10000
3,"N#Cc1c(N)sc2c(F)ccc(-c3c(C(F)(F)F)cc4c(N5CC6CCC(C5)N6)nc(OCC5(C(F)F)CCOC5)nc4c3F)c12 (single isomer, unassigned) [Example 14-Isomer 4, 4-(4-(3,8-diazabicyclo[3.2.1]octan-3-yl)-2-((3-(difluoromethyl)tetrahydrofuran-3-yl)methoxy)-8-fluoro-6-(trifluoromethyl)quinazolin-7-yl)-2-amino-7-fluorobenzo[b]thiophene-3-carbonitrile]",138
4,"N#Cc1c(N)sc2c(F)ccc(-c3c(C(F)(F)F)cc4c(N5C6CCC5CNC6)nc(OCC56COC(C5)C6)nc4c3F)c12 (single isomer, unassigned) [Example 9-Isomer 1, 4-(2-((2-oxabicyclo[2.1.1]hexan-4-yl)methoxy)-4-(3,8-diazabicyclo[3.2.1]octan-8-yl)-8-fluoro-6-(trifluoromethyl)quinazolin-7-yl)-2-amino-7-fluorobenzo[b]thiophene-3-carbonitrile]",> 10000
5,"N#Cc1c(N)sc2c(F)ccc(-c3c(C(F)(F)F)cc4c(N5CC6CCC(C5)N6)nc(OCC5(C#N)CCOC5)nc4c3F)c12 (single isomer, unassigned) [Example 10-Isomer 3, 3-(((7-(2-amino-3-cyano-7-fluorobenzo[b]thiophen-4-yl)-4-(3,8-diazabicyclo[3.2.1]octan-3-yl)-8-fluoro-6-(trifluoromethyl)quinazolin-2-yl)oxy)methyl)tetrahydrofuran-3-carbonitrile]",42

# Same assay, conditions: Homo sapiens, ASPC1, 2 h, 2 h compound treatment
row,SMILES,IC50 [nM]
1,"COC1(COc2nc(N3CC4CCC(C3)N4)c3cc(C(F)(F)F)c(-c4ccc(F)c5sc(N)c(C#N)c45)c(F)c3n2)CCOCC1 (single isomer, unassigned) [Example 4-Isomer 2, 4-(4-(3,8-diazabicyclo[3.2.1]octan-3-yl)-8-fluoro-2-((4-methoxytetrahydro-2H-pyran-4-yl)methoxy)-6-(trifluoromethyl)quinazolin-7-yl)-2-amino-7-fluorobenzo[b]thiophene-3 carbonitrile]",100
2,"COCC12CC(COc3nc(N4CC5CCC(C4)N5)c4cc(C(F)(F)F)c(-c5ccc(F)c6sc(N)c(C#N)c56)c(F)c4n3)(C1)C(C)(C)O2 [Example 56, 4-(4-(3,8-diazabicyclo[3.2.1]octan-3-yl)-8-fluoro-2-((1-(methoxymethyl)-3,3-dimethyl-2-oxabicyclo[2.1.1]hexan-4-yl)methoxy)-6-(trifluoromethyl)quinazolin-7-yl)-2-amino-7-fluorobenzo[b]thiophene-3-carbonitrile]",109
3,"N#CCC1(COc2nc(N3CC4CCC(C3)N4)c3cc(C(F)(F)F)c(-c4ccc(F)c5sc(N)c(C#N)c45)c(F)c3n2)CCOC1 (stereo not drawn) [Example 37, 4-(4-(3,8-diazabicyclo[3.2.1]octan-3-yl)-2-((3-(cyanomethyl)tetra hydrofuran-3-yl)methoxy)-8-fluoro-6-(trifluoromethyl)quinazolin-7-yl)-2-amino-7-fluorobenzo[h]thiophene-3-carbonitrile]",119
4,"Cn1ccnc1N1CC(C)(COc2nc(N3CC4CCC(C3)N4)c3cc(C(F)(F)F)c(-c4ccc(F)c5sc(N)c(C#N)c45)c(F)c3n2)C1 [Example 54, 4-(4-(3,8-diazabicyclo[3.2.1]octan-3-yl)-8-fluoro-2-((3-methyl-1-(1-methyl-1H-imidazol-2-yl)azetidin-3-yl)methoxy)-6-(trifluoromethyl)quinazolin-7-yl)-2-amino-7-fluorobenzo[b]thiophene-3-carbonitrile]",32
5,"CC1(COc2nc(N3CC4CCC(C3)N4)c3cc(C(F)(F)F)c(-c4ccc(F)c5sc(N)c(C#N)c45)c(F)c3n2)CN(C(=O)C2CC2)C1 [Example 31, 4-(4-(3,8-diazabicyclo[3.2.1]octan-3-yl)-2-((1-(cyclopropanecarbonyl)-3-methylazetidin-3-yl)methoxy)-8-fluoro-6-(trifluoromethyl)quinazolin-7-yl)-2-amino-7-fluorobenzo[b]thiophene-3-carbonitrile]",299
6,"COC(=O)N1CC(C)(COc2nc(N3CC4CCC(C3)N4)c3cc(C(F)(F)F)c(-c4ccc(F)c5sc(N)c(C#N)c45)c(F)c3n2)C1 [Example 8, methyl 3-(((7-(2-amino-3-cyano-7-fluorobenzo[h]thiophen-4-yl)-4-(3,8-diazabicyclo[3.2.1]octan-3-yl)-8-fluoro-6-(trifluoromethyl)quinazolin-2-yl)oxy)methyl)-3-methylazetidine-1-carboxylate]",159
7,"N#Cc1c(N)sc2c(F)ccc(-c3c(Cl)cc4c(N5C6CCC5CNC6)nc(OCC56COC(C5)C6)nc4c3F)c12 (single isomer, unassigned) [Example 5-Isomer 2, 4-(2-((2-oxabicyclo[2.1.1]hexan-4-yl)methoxy)-4-(3,8-diazabicyclo [3.2.1]octan-8-yl)-6-chloro-8-fluoroquinazolin-7-yl)-2-amino-7-fluorobenzo[b]thio phene-3-carbonitrile]",44
8,CC1(CC#N)CN(c2nc(N3CC4CCC(C3)N4)c3cc(C(F)(F)F)c(-c4ccc(F)c5sc(N)c(C#N)c45)c(F)c3n2)C1 [Example 17],561
9,"CC1(COc2nc(N3CC4CCC(C3)N4)c3cc(C(F)(F)F)c(-c4ccc(F)c5sc(N)c(C#N)c45)c(F)c3n2)CC2(COC2)C1 [Example 55, 4-(4-(3,8-diazabicyclo[3.2.1]octan-3-yl)-8-fluoro-2-((6-methyl-2-oxaspiro[3.3]heptan-6-yl)methoxy)-6-(trifluoromethyl)quinazolin-7-yl)-2-amino-7-fluorobenzo[b]thiophene-3-carbonitrile]",332
10,"N#CCC1(COc2nc(N3CC4CCC(C3)N4)c3cc(C(F)(F)F)c(-c4ccc(F)c5sc(N)c(C#N)c45)c(F)c3n2)COC1 [Example 51, 4-(4-(3,8-diazabicyclo[3.2.1]octan-3-yl)-2-((3-(cyanomethyl)oxetan-3-yl)methoxy)-8-fluoro-6-(trifluoromethyl)quinazolin-7-yl)-2-amino-7-fluoro benzo[b]thiophene-3-carbonitrile]",142
11,"CC1(COc2nc(N3CC4CCC(C3)N4)c3cc(C(F)(F)F)c(-c4ccc(F)c5sc(N)c(C#N)c45)c(F)c3n2)COC1 [Example 18, 4-(4 (3,8-diazabicyclo[3.2.1]octan-3-yl)-8-fluoro-2-((3-methyloxetan-3-yl)methoxy)-6-(trifluoromethyl)quinazolin-7-yl)-2-amino-7-fluorobenzo [b]thiophene-3-carbonitrile]",146
12,"CC1(COc2nc(N3CC4CCC(C3)N4)c3cc(C(F)(F)F)c(-c4ccc(F)c5sc(N)c(C#N)c45)c(F)c3n2)CN(c2ncco2)C1 [Example 46, 4-(4-(3,8-diazabicyclo[3.2.1]octan-3-yl)-8-fluoro-2-((3-methyl-1-(oxazol-2-yl)azetidin-3-yl)methoxy)-6-(trifluoromethyl)quinazolin-7-yl)-2-amino-7-fluorobenzo[b]thiophene-3-carbonitrile]",222
13,CC(F)(F)C1(COc2nc(N3CC4CCC(C3)N4)c3cc(C(F)(F)F)c(-c4ccc(F)c5sc(N)c(C#N)c45)c(F)c3n2)COC1 [Example 34],81
14,"N#Cc1c(N)sc2c(F)ccc(-c3c(C(F)(F)F)cc4c(N5CC6CCC(C5)N6)nc(OCC5CCOCC5)nc4c3F)c12 [Example 23, 4-(4-(3,8-diazabicyclo[3.2.1]octan-3-yl)-8-fluoro-2-((tetrahydro-2H-pyran-4-yl)methoxy)-6-(trifluoromethyl)quinazolin-7-yl)-2-amino-7-fluorobenzo[b]thiophene-3-carbonitrile]",334
15,"COC1(COc2nc(N3CC4CCC(C3)N4)c3cc(C(F)(F)F)c(-c4ccc(F)c5sc(N)c(C#N)c45)c(F)c3n2)CCOC1 (stereo not drawn) [Example 3-Mixture 1, 4-(4-(3,8-diazabicyclo[3.2.1]octan-3-yl)-8-fluoro-2-((3-methoxytetra hydrofuran-3-yl)methoxy)-6-(trifluoromethyl)quinazolin-7-yl)-2-amino-7-fluoro benzo[b]thiophene-3-carbonitrile]",1730
16,"N#CCC1(COc2nc(N3CC4CCC(C3)N4)c3cc(C(F)(F)F)c(-c4ccc(F)c5sc(N)c(C#N)c45)c(F)c3n2)CCOCC1 [Example 35, 4-(4-(3,8-diazabicyclo[3.2.1]octan-3-yl)-2-((4-(cyanomethyl)tetra hydro-2H-pyran-4-yl)methoxy)-8-fluoro-6-(trifluoromethyl)quinazolin-7-yl)-2-amino-7-fluorobenzo[b]thiophene-3-carbonitrile]",275
